In patent US20240300932A1, “N-PHENYLIMINE DERIVATIVE AND PREPARATION METHOD AND USE THEREOF” (Guizhou University, priority 2023, published 2024):

Tests used:
Assay in all cases: Post-emergence herbicidal activity test (stem and leaf spray, pot culture)
Format in all cases: in vivo
Settings in all cases: 3 weeks after spraying
[1] = tested on: Abutilon theophrasti
How it was run: (§1)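 Greenhouse pot-grown weeds (loam, pH 7) sprayed post-emergence at 2- to 3-leaf stage with acetone/Tween 80 formulation plus 1.5 liters/ha methyl oleate, at 10, 5 and 2.5 g/mu. Fresh-weight growth control rated 3 weeks later on 0–5 grade scale.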

[2] = tested on: Amaranthus retroflexus
How it was run: as §1

[3] = tested on: Echinochloa crusgalli
How it was run: as §1

[4] = tested on: Portulaca oleracea
How it was run: as §1

[5] = tested on: Setaria viridis
How it was run: as §1

[6] = tested on: Trifoliumre pensL.
How it was run: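 Pot-grown weeds in loam (pH 7), greenhouse at 20–30 °C, sprayed once post-emergence at the 2–3-leaf stage. Compound in acetone with Tween 80 plus methyl oleate oil (1.5 L/ha), applied at 10, 5 and 2.5 g/mu by spray tower. Effect scored 3 weeks after spraying, averaged over three repeats.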

Row | Structure (SMILES) | Post-emergence herbicidal activity, A. theophrasti (grade) ([1]; dosage 2.5 g/mu) | Post-emergence herbicidal activity, A. theophrasti (grade) ([1]; dosage 5 g/mu) | Post-emergence herbicidal activity, A. theophrasti (grade) ([1]; dosage 10 g/mu) | Post-emergence herbicidal activity, A. retroflexus (grade) ([2]; dosage 2.5 g/mu) | Post-emergence herbicidal activity, A. retroflexus (grade) ([2]; dosage 5 g/mu) | Post-emergence herbicidal activity, A. retroflexus (grade) ([2]; dosage 10 g/mu) | Post-emergence herbicidal activity, E. crusgalli (grade) ([3]; dosage 2.5 g/mu) | Post-emergence herbicidal activity, E. crusgalli (grade) ([3]; dosage 5 g/mu) | Post-emergence herbicidal activity, E. crusgalli (grade) ([3]; dosage 10 g/mu) | Post-emergence herbicidal activity, P. oleracea (grade) ([4]; dosage 2.5 g/mu) | Post-emergence herbicidal activity, P. oleracea (grade) ([4]; dosage 5 g/mu) | Post-emergence herbicidal activity, P. oleracea (grade) ([4]; dosage 10 g/mu) | Post-emergence herbicidal activity, S. viridis (grade) ([5]; dosage 2.5 g/mu) | Post-emergence herbicidal activity, S. viridis (grade) ([5]; dosage 5 g/mu) | Post-emergence herbicidal activity, S. viridis (grade) ([5]; dosage 10 g/mu) | Post-emergence herbicidal activity, Trifoliumre pensL. (grade) ([6]; dosage 2.5 g/mu) | Post-emergence herbicidal activity, Trifoliumre pensL. (grade) ([6]; dosage 5 g/mu) | Post-emergence herbicidal activity, Trifoliumre pensL. (grade) ([6]; dosage 10 g/mu)
1 | O=C1C2=C(CCCC2)C(=O)N1c1cc(OCc2nnc(-c3ccc(I)cc3)o2)c(Cl)cc1F [Compound B17] | 5 (Grade 5: the growth control rate is greater than or equal to 85%) | 5 (Grade 5: the growth control rate is greater than or equal to 85%) | 5 (Grade 5: the growth control rate is greater than or equal to 85%) | 5 (Grade 5: the growth control rate is greater than or equal to 85%) | 5 (Grade 5: the growth control rate is greater than or equal to 85%) | 5 (Grade 5: the growth control rate is greater than or equal to 85%) | 1 (Grade 1: the growth control rate is greater than or equal to 5% and less than 20%) | 2 (Grade 2: the growth control rate is greater than or equal to 20% and less than 40%) | 3 (Grade 3: the growth control rate is greater than or equal to 40% and less than 60%) | 5 (Grade 5: the growth control rate is greater than or equal to 85%) | 5 (Grade 5: the growth control rate is greater than or equal to 85%) | 5 (Grade 5: the growth control rate is greater than or equal to 85%) | 2 (Grade 2: the growth control rate is greater than or equal to 20% and less than 40%) | 3 (Grade 3: the growth control rate is greater than or equal to 40% and less than 60%) | 4 (Grade 4: the growth control rate is greater than or equal to 60% and less than 85%) | 5 (Grade 5: the growth control rate is greater than or equal to 85%) | 5 (Grade 5: the growth control rate is greater than or equal to 85%) | 5 (Grade 5: the growth control rate is greater than or equal to 85%)
2 | O=C1C2=C(CCCC2)C(=O)N1c1cc(OCc2nnc(-c3ccc([N+](=O)[O-])cc3)o2)c(Cl)cc1F [Compound B18] | 4 (Grade 4: the growth control rate is greater than or equal to 60% and less than 85%) | 5 (Grade 5: the growth control rate is greater than or equal to 85%) | 5 (Grade 5: the growth control rate is greater than or equal to 85%) | 5 (Grade 5: the growth control rate is greater than or equal to 85%) | 5 (Grade 5: the growth control rate is greater than or equal to 85%) | 5 (Grade 5: the growth control rate is greater than or equal to 85%) | 1 (Grade 1: the growth control rate is greater than or equal to 5% and less than 20%) | 2 (Grade 2: the growth control rate is greater than or equal to 20% and less than 40%) | 3 (Grade 3: the growth control rate is greater than or equal to 40% and less than 60%) | 4 (Grade 4: the growth control rate is greater than or equal to 60% and less than 85%) | 5 (Grade 5: the growth control rate is greater than or equal to 85%) | 5 (Grade 5: the growth control rate is greater than or equal to 85%) | 2 (Grade 2: the growth control rate is greater than or equal to 20% and less than 40%) | 3 (Grade 3: the growth control rate is greater than or equal to 40% and less than 60%) | 4 (Grade 4: the growth control rate is greater than or equal to 60% and less than 85%) | 5 (Grade 5: the growth control rate is greater than or equal to 85%) | 5 (Grade 5: the growth control rate is greater than or equal to 85%) | 5 (Grade 5: the growth control rate is greater than or equal to 85%)
3 | O=C1C2=C(CCCC2)C(=O)N1c1cc(OCc2nnc(-c3ccc(Cl)cc3F)o2)c(Cl)cc1F [Compound B19] | 5 (Grade 5: the growth control rate is greater than or equal to 85%) | 5 (Grade 5: the growth control rate is greater than or equal to 85%) | 5 (Grade 5: the growth control rate is greater than or equal to 85%) | 5 (Grade 5: the growth control rate is greater than or equal to 85%) | 5 (Grade 5: the growth control rate is greater than or equal to 85%) | 5 (Grade 5: the growth control rate is greater than or equal to 85%) | 1 (Grade 1: the growth control rate is greater than or equal to 5% and less than 20%) | 2 (Grade 2: the growth control rate is greater than or equal to 20% and less than 40%) | 3 (Grade 3: the growth control rate is greater than or equal to 40% and less than 60%) | 5 (Grade 5: the growth control rate is greater than or equal to 85%) | 5 (Grade 5: the growth control rate is greater than or equal to 85%) | 5 (Grade 5: the growth control rate is greater than or equal to 85%) | 2 (Grade 2: the growth control rate is greater than or equal to 20% and less than 40%) | 3 (Grade 3: the growth control rate is greater than or equal to 40% and less than 60%) | 4 (Grade 4: the growth control rate is greater than or equal to 60% and less than 85%) | 5 (Grade 5: the growth control rate is greater than or equal to 85%) | 5 (Grade 5: the growth control rate is greater than or equal to 85%) | 5 (Grade 5: the growth control rate is greater than or equal to 85%)
4 | O=C1C2=C(CCCC2)C(=O)N1c1cc(OCc2nnc(-c3ccc([N+](=O)[O-])cc3F)o2)c(Cl)cc1F [Compound B20] | 5 (Grade 5: the growth control rate is greater than or equal to 85%) | 5 (Grade 5: the growth control rate is greater than or equal to 85%) | 5 (Grade 5: the growth control rate is greater than or equal to 85%) | 4 (Grade 4: the growth control rate is greater than or equal to 60% and less than 85%) | 5 (Grade 5: the growth control rate is greater than or equal to 85%) | 5 (Grade 5: the growth control rate is greater than or equal to 85%) | 1 (Grade 1: the growth control rate is greater than or equal to 5% and less than 20%) | 2 (Grade 2: the growth control rate is greater than or equal to 20% and less than 40%) | 3 (Grade 3: the growth control rate is greater than or equal to 40% and less than 60%) | 5 (Grade 5: the growth control rate is greater than or equal to 85%) | 5 (Grade 5: the growth control rate is greater than or equal to 85%) | 5 (Grade 5: the growth control rate is greater than or equal to 85%) | 2 (Grade 2: the growth control rate is greater than or equal to 20% and less than 40%) | 3 (Grade 3: the growth control rate is greater than or equal to 40% and less than 60%) | 4 (Grade 4: the growth control rate is greater than or equal to 60% and less than 85%) | 4 (Grade 4: the growth control rate is greater than or equal to 60% and less than 85%) | 5 (Grade 5: the growth control rate is greater than or equal to 85%) | 5 (Grade 5: the growth control rate is greater than or equal to 85%)
